Assay results from PubChem BioAssay (NCI).
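Interpolation was linear, between the two tested concentrations surrounding the appropriate level; five concentrations were tested over 48 hours in 96-well plates. TGI denotes the concentration required for complete inhibition of growth.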

Experiments:
Assay in all cases: NCI-60 cell line screen, 48 h
[1] = test system: SF-268 CNS
[2] = test system: UACC-62 melanoma
[3] = test system: IGROV1 ovarian
[4] = test system: NCI-H522 lung
[5] = test system: OVCAR-8 ovarian
[6] = test system: OVCAR-3 ovarian
[7] = test system: SK-OV-3 ovarian
[8] = test system: MOLT-4 leukemia
[9] = test system: HT29 colon
[10] = test system: MCF7 breast
[11] = test system: CAKI-1 renal
[12] = test system: T-47D breast
[13] = test system: BT-549 breast
[14] = test system: U251 CNS
[15] = test system: SK-MEL-28 melanoma
[16] = test system: M14 melanoma
[17] = test system: A498 renal
[18] = test system: HCT-116 colon
[19] = test system: K-562 leukemia
[20] = test system: SW-620 colon
[21] = test system: NCI-H460 lung
[22] = test system: DU-145 prostate
[23] = test system: MDA-MB-435
[24] = test system: SN12C renal
[25] = test system: SF-539 CNS
[26] = test system: TK-10 renal
[27] = test system: OVCAR-5 ovarian
[28] = test system: CCRF-CEM leukemia
[29] = test system: SNB-19 CNS
[30] = test system: COLO 205 colon
[31] = test system: OVCAR-4 ovarian
[32] = test system: NCI-H23 lung
[33] = test system: SK-MEL-2 melanoma
[34] = test system: HOP-62 NSCLC
[35] = test system: ACHN renal
[36] = test system: HOP-92 NSCLC
[37] = test system: SK-MEL-5 melanoma
[38] = test system: SR leukemia
[39] = test system: A549 NSCLC
[40] = test system: MALME-3M melanoma
[41] = test system: SNB-75 CNS
[42] = test system: HCC-2998 colon
[43] = test system: KM12 colon
[44] = test system: MDA-N
[45] = test system: NCI/ADR-RES ovarian
[46] = test system: RXF 393 renal
[47] = test system: MDA-MB-231 breast
[48] = test system: EKVX NSCLC
[49] = test system: 786-0 renal
[50] = test system: SF-295 CNS
[51] = test system: LOX IMVI melanoma
[52] = test system: HCT-15 colon
[53] = test system: UO-31 renal
[54] = test system: PC-3 prostate
[55] = test system: NCI-H226 lung
[56] = test system: UACC-257 melanoma
[57] = test system: HS 578T breast
[58] = test system: HL-60(TB) leukemia
[59] = test system: RPMI-8226 leukemia

Measured: TGI

C=C(C)CCC(=O)[C@](C)(O)[C@H]1[C@H](O)C[C@@]2(C)[C@@H]3CCc4c(cc(OC5OC(CO)C(O)C(O)C5O)c(O)c4C)C3(C)C(=O)C[C@]12C (stereo partly specified)
> 100 µM: [1] | [2] | [3] | [4] | [5] | [6] | [7] | [8] | [9] | [10] | [11] | [12] | [13] | [14] | [15] | [16] | [17] | [18] | [19] | [20] | [21] | [22] | [23] | [24] | [25] | [26] | [27] | [28] | [29] | [30] | [31] | [32] | [33] | [34] | [35] | [36] | [37] | [38] | [39] | [40] | [41] | [42] | [43] | [44] | [45] | [46] | [47] | [48] | [49] | [50] | [51] | [52] | [53] | [54] | [55] | [56]

O=C(NC(Cc1c[nH]c2ccccc12)C(=O)O)/C(=C/c1ccccc1O)NC(=O)c1ccccc1 (stereo unspecified)
37 µM: [50]
75.5 µM: [36]
63.9 µM: [24]
39.7 µM: [45]
38.5 µM: [41]
36.9 µM: [11]
52.5 µM: [13]
61.5 µM: [55]
65 µM: [47]
24.9 µM: [10]
33.3 µM: [35]
56.7 µM: [7]
> 100 µM: [2] | [3] | [4] | [8] | [9] | [12] | [58] | [14] | [15] | [16] | [17] | [18] | [19] | [20] | [21] | [22] | [23] | [26] | [27] | [28] | [29] | [30] | [31] | [32] | [37] | [38] | [39] | [40] | [42] | [43] | [44] | [46] | [59] | [48] | [51] | [52] | [56]
40.6 µM: [25]
18.7 µM: [53]
73.3 µM: [57]
45.6 µM: [1]
28.9 µM: [5]
46.9 µM: [49]
